# Values quoted from earlier work, collected in patent US20200163962A1, “PHARMACEUTICAL COMPOSITION OF NILOTINIB” (SUN PHARMACEUTICAL INDUSTRIES LTD., priority 2016, published 2020).
# Key:
# [1] = particularly the hydrochloride
# [2] = ingested with or after meals, particularly high fat meals
structure (smiles),measurement,setting,value
"Cc1cn(-c2cc(NC(=O)c3ccc(C)c(Nc4nccc(-c5cccnc5)n4)c3)cc(C(F)(F)F)c2)cn1 [Nilotinib, 4-methyl-N-[3-(4-methyl-1H-imidazol-1-yl)-5-(trifluoromethyl)phenyl]-3-[[4-(3-pyridinyl)-2-pyrimidinyl]amino]-benzamide]",increase of systemic exposure (AUC) compared to the fasted state,dose given 30 minutes after a high fat meal,82%
same,increase of Cmax with food,[2],112%
same,increase of area under the plasma profile curve with food,[2],82%
same,water solubility,[1],poorly water soluble
